In patent US8197860B2, “Method for enhancing nutrient absorption with astragalosides” (Nuliv Holding Inc., priority 2005, dated 2012):

Assays:
Type in all cases: cell-based, human
Caco2 cells [1] = experiment: Glucose uptake assay; set-up: key to * (regulatory effect on glucose uptake): ↑: the arrows that point up represent the enhancing effect on the glucose uptake; settings: for Regulatory effects on the glucose uptake of the Caco2 cells: Table 2 summary; for Uptake rate (glucose): 48 hours, 25 mM glucose
Procedure: (§1) To evaluate the effect of the isolated astragaloside compound on the uptake of nutrient substances across the intestinal lumen, Caco-2 cells were grown on permeable filter as an experimental model. Caco2 cells originate from human colonic adenocarcinoma and spontaneously differentiate into an enterocyte-like phenotype after two weeks. The Caco-2 cell line, derived from a human colorectal carcinoma, has been used as an in vitro model system for studying drug absorption in gastrointestinal tract. These cells form monolayers with well-developed tight-junctions, and have been evaluated in details as an in vitro model to study both transcellular transport of nutrients and drugs in intestinal lumen.
(§2) Caco-2 cells were obtained from the ATCC (American Type Culture Collection). The cells were maintained in Dulbecco's modified Eagle medium (DMEM) containing 4.5 g/L glucose and 25 mM Hepes, supplemented with 10% fetal calf serum, 100 U/mL penicillin G and […]. The medium was changed every second day. The cells were routinely checked for Mycoplasma in monthly intervals. Caco-2 cells were cultured on semi-permeable membranes to differentiate into a highly functionalized epithelial barrier with remarkable morphological and biochemical similarity to the small intestinal columnar epithelium. The Caco-2 cell monolayers could therefore be used to study the membrane transport properties of many compounds. To trypsinize the cells, the culture dish was washed once with phosphate-buffered saline (PBS) followed by adding trypsine-EDTA for 10 minutes. The trypsinized cells were separated and filtered into single cells using a 35-μm strainer cap (Falcon 2235) before being seeded for further experiments.
(§3) Caco-2 cells (5×10^4) were seeded in a 48-well plate and maintained in culture medium (DMEM with 10% FBS, 1% nonessential amino acids, L-glutamine, penicillin G (100 U/mL), streptomycin (10 μg/mL), and amphotericin B (2.5 μg/mL) in a 37° C. incubator for 10 days for the cells to differentiate. The culture medium was changed once every two days. The cells were then washed with PBS before replenishing with the culture medium containing 5% FBS and various astragalosides at the indicated concentrations (0.01, 0.1 and 1 μM) for 48 hours. The Caco2 cells were washed out of remaining glucose with PBS and replaced in the glucose buffer (80 mM NaCl, 100 mM mannitol, 20 mM Tris-HCl, pH 7.4, 3 mM K2HPO4, 1 mM CaCl2, 1 mg/mL BSA) for 1 hour. Glucose uptake was initiated by replacing the glucose buffer with 0.2 ml of glucose buffer containing 2 μCi/mL of ^14C-glucose and unlabeled cold glucose to give a final glucose concentration of 25 mM. Glucose uptake was stopped by removing the glucose buffer and washing with PBS at designated time intervals. The cells were lysed in 0.2 mL of 0.2 N NaOH, and 20 μL of the cell lysate were transferred to the filter-bottomed UniFilter plates (Perkin-Elmer, Wellesley, Mass., USA) and dried in a vacuum oven at 37° C. The bottom of the UniFilter plate was sealed and 25 μL of the counting solution were added into each well. Adhesive plate sealers were used in place of the lids and radioactivity of each sample was counted using the microplate liquid scintillation counter (TopCount, Packard NXT, Packard BioScience Company, Meriden, Conn., USA). The amount of glucose accumulated in the cells was calculated and normalized to protein concentration, and uptake rate was expressed as nanomoles of glucose per minutes per milligram of cell protein (nmol/min/mg). Protein concentration was determined by a standard Bicinchoninic acid (BCA) protein assay. Nonspecific glucose uptake was measured by adding 2 μCi of L-[^14C]-glucose and subtracting from each determination to obtain specific glucose uptake.

Caco-2 cell monolayer [2] = experiment: Arginine absorption assay (transport across Caco-2 cell monolayer); set-up: key to * (regulatory effect on arginine transport): ↑: the arrows that point up represent the enhancing effect on the arginine transport; settings: for Regulatory effects on the arginine transport across the Caco2 cell monolayer: Table 3 summary; for Transport rate (arginine): 10 mM L-arginine apical
Procedure: as §1, §2
(§4) In measuring transport of arginine across the Caco-2 cell monolayer, both sides of the transwells were washed with arginine incubation buffer consisting of: 137 mM NaCl, 10 mM Hepes, 0.3 mM NaH2PO4, 0.3 mM K2HPO4, 5.4 mM KCl, 2.8 mM CaCl2, 1 mM MgSO4, 10 mM glucose, adjusted to pH 7.4. Then, the cell layer was preincubated in the incubation buffer at 37° C. for 1 h. The volume of incubation buffer was 0.2 mL and 0.9 mL in the apical and basolateral chambers, respectively. The cells were replaced with fresh incubation medium in both chambers prior to the transport experiment. The transport experiment was initiated by replacing the incubation solution on the apical side with solution containing 10 mM of L-arginine in which 0.125 μCi/mL of L-[^3H]-arginine was included. At designated time intervals, 10 μL-solution samples were removed from the basolateral side and radioactivity of each sample was counted using a microplate liquid scintillation counter (TopCount, Packard NXT). During the experiment, when a 10 μL-solution sample was removed from the basolateral side every time, 10 μL buffer was supplemented to keep the volume constant. The uptake of [^3H]-mannitol was used to correct for nonspecific transport of molecules across the monolayer membrane. Results were expressed as the nanomoles of arginine transport across the Caco-2 cell monolayers with respect to time in minutes (nmol/min).

Caco-2 cell monolayer [3] = experiment: Tryptophan absorption assay (transport across Caco-2 cell monolayer); set-up: key to * (regulatory effect on tryptophan transport): ↑: the arrows that point up represent the enhancing effect on the tryptophan transport; settings: for Regulatory effects on the tryptophan transport across the Caco2 cell monolayer: Table 4 summary
Procedure: as §1, §2, §4
The experimental procedures similar to those in Example 2 were used for measuring the uptake of tryptophan molecules across the Caco-2 membrane, except using a tryptophan incubation buffer consisting of 137 mM choline chloride, 10 mM Hepes, 0.6 mM KH2PO4, 5.4 mM KCl, 2.8 mM CaCl2, 1 mM MgSO4, and 10 mM glucose, and having its pH adjusted to 7.4. Results were expressed as the nanomoles of tryptophan transport across the Caco-2 cell monolayers with respect to time in minutes (nmol/min).

Caco2 cells [4] = experiment: Folate uptake assay; set-up: key to * (regulatory effect on folate uptake): ↑: the arrows that point up represent the enhancing effect on folate uptake; settings: for * (regulatory effect on folate uptake) / Percentage (folate uptake vs own control) / Uptake rate (folate): compound 0.1 μM; for Uptake rate (folate): 2 days, 5 μM folate, pH 6.0
Procedure: as §1, §2, §3
The Caco2 cells were subjected to folate uptake test in a manner similar to that described in the glucose uptake assay in Example 1 above. […]

Row | SMILES | Regulatory effects on the glucose uptake of the Caco2 cells (Caco2 cells [1]) | * (regulatory effect on glucose uptake) (Caco2 cells [1]; compound 0.01 μM) | Percentage (glucose uptake, control = 100) (Caco2 cells [1]; compound 0.01 μM) [%] | Uptake rate (glucose) (Caco2 cells [1]; compound 0.01 μM) [nmol/mg/min] | * (regulatory effect on glucose uptake) (Caco2 cells [1]; compound 0.1 μM) | Percentage (glucose uptake, control = 100) (Caco2 cells [1]; compound 0.1 μM) [%] | Uptake rate (glucose) (Caco2 cells [1]; compound 0.1 μM) [nmol/mg/min] | Percentage (glucose uptake, control = 100) (Caco2 cells [1]; compound 1 μM) [%] | Uptake rate (glucose) (Caco2 cells [1]; compound 1 μM) [nmol/mg/min] | Regulatory effects on the arginine transport across the Caco2 cell monolayer (Caco-2 cell monolayer [2]) | * (regulatory effect on arginine transport) (Caco-2 cell monolayer [2]; compound 0.01 μM) | Percentage (arginine transport, control = 100) (Caco-2 cell monolayer [2]; compound 0.01 μM) [%] | Transport rate (arginine) (Caco-2 cell monolayer [2]; compound 0.01 μM) [nmol/min] | * (regulatory effect on arginine transport) (Caco-2 cell monolayer [2]; compound 0.1 μM) | Percentage (arginine transport, control = 100) (Caco-2 cell monolayer [2]; compound 0.1 μM) [%] | Transport rate (arginine) (Caco-2 cell monolayer [2]; compound 0.1 μM) [nmol/min] | Regulatory effects on the tryptophan transport across the Caco2 cell monolayer (Caco-2 cell monolayer [3]) | * (regulatory effect on tryptophan transport) (Caco-2 cell monolayer [3]; compound 0.01 μM) | Percentage (tryptophan transport, control = 100) (Caco-2 cell monolayer [3]; compound 0.01 μM) [%] | Transport rate (tryptophan) (Caco-2 cell monolayer [3]; compound 0.01 μM) [nmol/min] | also measured
1 | CC(=O)OC1C(O)COC(OC2CCC34CC35CCC3(C)C(C6(C)CCC(C(C)(C)O)O6)C(O)CC3(C)C5CC(OC3OC(CO)C(O)C(O)C3O)C4C2(C)C)C1OC(C)=O (stereo not shown) [AS1, astragaloside I] | had regulatory effects on the glucose uptake | ↑ | 146.75 | 9.3510 ± 1.1370 | ↑ | 122.82 | 7.8260 ± 1.7510 | 98.52 | 6.2780 ± 1.9930 | had regulatory effects on the arginine transport | ↑ | 151.91 | 16.2324 ± 0.7215 | ↑ | 147.21 | 15.7300 ± 1.1250 | had regulatory effects on the tryptophan transport | ↑ | 248.49 | 22.220 ± 0.8695 | * (regulatory effect on arginine transport) (Caco-2 cell monolayer [2]; compound 0.001 μM): ↑; Percentage (arginine transport, control = 100) (Caco-2 cell monolayer [2]; compound 0.001 μM): 133.37%; Transport rate (arginine) (Caco-2 cell monolayer [2]; compound 0.001 μM): 14.2554 ± 0.5851 nmol/min; Arginine transport rate (Caco-2 cell monolayer [2]; concentration from 0.001 μM to 0.1 μM): increased; * (regulatory effect on tryptophan transport) (Caco-2 cell monolayer [3]; compound 0.1 μM): ↑; Percentage (tryptophan transport, control = 100) (Caco-2 cell monolayer [3]; compound 0.1 μM): 258.67%; Transport rate (tryptophan) (Caco-2 cell monolayer [3]; compound 0.1 μM): 23.130 ± 1.3120 nmol/min; * (regulatory effect on tryptophan transport) (Caco-2 cell monolayer [3]; compound 1 μM): ↑; Percentage (tryptophan transport, control = 100) (Caco-2 cell monolayer [3]; compound 1 μM): 178.93%; Transport rate (tryptophan) (Caco-2 cell monolayer [3]; compound 1 μM): 16.000 ± 1.3190 nmol/min; Tryptophan transport rate (Caco-2 cell monolayer [3]; concentration from 0.01 μM to 0.1 mM): increased; Folate uptake versus control group (Caco2 cells [4]; 0.1 μM, FIG. 4): increased folate uptake; * (regulatory effect on folate uptake) (Caco2 cells [4]): ↑; Percentage (folate uptake vs own control) (Caco2 cells [4]): 150.00%; Uptake rate (folate) (Caco2 cells [4]): 79.710 ± 3.0410 pmol/mg/min
2 | CC(C)(O)[C@@H]1CC[C@](C)([C@H]2[C@@H](O)C[C@@]3(C)[C@@H]4C[C@H](O[C@@H]5O[C@H](CO)[C@@H](O)[C@H](O)[C@H]5O)[C@H]5C(C)(C)[C@@H](O[C@@H]6OC[C@@H](O)[C@H](O)[C@H]6O[C@@H]6O[C@H](CO)[C@@H](O)[C@H](O)[C@H]6O)CC[C@@]56C[C@@]46CC[C@]23C)O1 [AS6, astragaloside VI] | had regulatory effects on the glucose uptake | ↑ | 119.84 | 7.6360 ± 1.7330 | ↑ | 109.97 | 7.0070 ± 1.9470 | 122.49 | 7.8050 ± 1.1830 | had regulatory effects on the arginine transport | ↑ | 130.35 | 13.9283 ± 1.7330 | ↑ | 140.36 | 14.9986 ± 1.3200 | had regulatory effects on the tryptophan transport | ↑ | 173.45 | 15.510 ± 0.3688 | * (regulatory effect on glucose uptake) (Caco2 cells [1]; compound 1 μM): ↑; * (regulatory effect on arginine transport) (Caco-2 cell monolayer [2]; compound 1 μM): ↑; Percentage (arginine transport, control = 100) (Caco-2 cell monolayer [2]; compound 1 μM): 127.22%; Transport rate (arginine) (Caco-2 cell monolayer [2]; compound 1 μM): 13.5942 ± 1.2760 nmol/min; Arginine transport rate (Caco-2 cell monolayer [2]; concentration from 0.01 μM to 1 μM): increased; * (regulatory effect on tryptophan transport) (Caco-2 cell monolayer [3]; compound 0.1 μM): ↑; Percentage (tryptophan transport, control = 100) (Caco-2 cell monolayer [3]; compound 0.1 μM): 151.87%; Transport rate (tryptophan) (Caco-2 cell monolayer [3]; compound 0.1 μM): 13.850 ± 0.6567 nmol/min; * (regulatory effect on tryptophan transport) (Caco-2 cell monolayer [3]; compound 1 μM): ↑; Percentage (tryptophan transport, control = 100) (Caco-2 cell monolayer [3]; compound 1 μM): 173.23%; Transport rate (tryptophan) (Caco-2 cell monolayer [3]; compound 1 μM): 15.490 ± 0.2161 nmol/min; Tryptophan transport rate (Caco-2 cell monolayer [3]; concentration from 0.01 μM to 1 mM): increased; * (regulatory effect on folate uptake) (Caco2 cells [4]): ↑; Percentage (folate uptake vs own control) (Caco2 cells [4]): 140.37%; Uptake rate (folate) (Caco2 cells [4]): 84.560 ± 4.7200 pmol/mg/min
